Source: patent US8206970B2, “Production of 2-butanol and 2-butanone employing aminobutanol phosphate phospholyase” (Butamax(TM) Advanced Biofuels LLC, priority 2006, dated 2012)

Columns and labels:
[1] = tested on: Erwinia amino alcohol O-phosphate lyase; assay: activity of amino alcohol O-phosphate lyase towards aminobutanol O-phosphate and stereoisomers (MBTH derivatization, HPLC); assay type: biochemical, Erwinia carotovora subsp. atroseptica; settings: for product yield / activity compared among substrates: same conditions, comparison between substrate isomers; for conversion of substrate to ketone product: 100 μg cell free extract, 10 mM substrate, 0.1 mM PLP, pH 7.8, 37° C. overnight
Description: 2-Butanone can also be detected by derivatization with 3-methyl-2-benzothiazolinone hydrazone (MBTH). An aqueous solution containing 2-butanone is mixed with an equal volume of an aqueous solution of 6 mg/mL MBTH in 375 mM glycine-HCl (pH 2.7) and incubated at 100° C. for 3 min. The resulting MBTH-derivatized samples are analyzed on a 25 cm×4.6 mm (id) Supelosil LC-18-D5 5 μm column (Supelco) using a mobile phase of 55% acetonitrile in water at a flow rate of 1 mL/min. The 2-butanone derivative appears as two peaks (cis and trans isomers) with retention times of approximately 12.3 and 13.3 min and absorbance maxima of 230 and 307 nm.
The activity of the amino alcohol O-phosphate lyase towards the aminobutanol O-phosphate substrates was studied under the same conditions as described above. The reaction was carried out at 37° C. overnight in a 1 mL reaction that contained 100 μg of cell free extract of E. coli TOP10/pBAD.KA-AT, 10 mM aminobutanol O-phosphate (either the mixture of (R,R)+(S,S) or the mixture of (R,S) +(S,R) isomers described in Example 15) in 100 mM Tris-HCI, pH 7.8, with 0.1 mM PLP. An aliquot of 100 μL reaction mixture was removed and the 2-butanone product was detected using the MBTH derivatization method described in the General Methods. […] Therefore the Erwinia amino alcohol O-phosphate lyase is an aminobutanol phosphate phospho-lyase in addition to an aminopropanol phosphate phospho-lyase.
The activity of the Erwinia amino alcohol O-phosphate lyase towards various stereoisomers of aminopropanol O-phosphate and aminobutanol O-phosphate was studied under the same conditions as described above. […] Both propanone and butanone products were derivatized by MBTH, and detected by HPLC as described in General Methods.

[2] = tested on: Erwinia amino alcohol O-phosphate lyase; assay: aminopropanol O-phosphate lyase assay (colorimetric, MBTH); assay type: biochemical, Erwinia carotovora subsp. atroseptica; settings: induced cell free extract 100 μg/mL, 10 mM substrate, 37° C.
Description: The PBAD.KA-AT plasmid was transformed into the E. coli TOP10 strain. A 50 mL culture of TOP10/pBAD.KA-AT strain was grown to mid log phase (OD600=0.6) in LB, 100 μg/mL ampicillin media at 37° C. with shaking at 250 rpm. The culture was induced by addition of L-arabinose to a final concentration of 0.1% (w/v), and it was further incubated at 37° C. for 5 h before harvesting by centrifugation. The cell pellet was resuspended in ice cold 50 mM Tris-HCl, pH 8.0, and disrupted by sonication on ice with a Fischer Sonic Model 300 Dismembrator (Fischer, Pittsburgh, Pa.) at 50% power, repeating four cycles of 30 seconds sonication with 60 seconds rest in-between each cycle. Each sonicated sample was centrifuged (15,000×g, 4 min, 4° C.). Clarified cell free extracts were analyzed for protein expression level and amino alcohol O-phosphate lyase activity.
The aminopropanol O-phosphate lyase assay was performed as described by Jones et al. (1973, Biochem. J. 134:167-182) and G. Gori et al. (1995, Chromatographia 40:336) The formation of propionaldehyde from aminopropanol O-phosphate was assayed calorimetrically with MBTH, which allows the detection of aldehyde formation. The reaction was performed as follows. In a 1 mL reaction, 100 μg cell free extract of E. coli TOP10/pBAD.KA-AT was added to 10 mM DL-1-amino-2-propanol O-phosphate in 100 mM Tris-HCl, pH 7.8, with 0.1 mM PLP. The reaction was incubated at 37° C. for 10 min and 30 min, with an aliquot of 100 μL reaction mixture removed at each time point and mixed with 100 μL of 6 mg/mL MBTH in 375 mM glycine-HCl, pH 2.7. This mixture was incubated at 100° C. for 3 min, cooled on ice for 15-30 s, and 1 mL of 3.3 mg/mL FeCl3.6H2O (in 10 mM HCl) was added, followed by incubation for 30 min at room temperature. The absorbance of the reaction mixture which contains the aldehyde-MBTH adduct, was measured at 670 nm. In the presence of the aminopropanol phosphate substrate, PLP and cell free extract, formation of aldehyde was detected, as indicated by an Abs670 that was higher than the control background of up to 0.3. In the absence of either the substrate or the cell free extract, no aldehyde formation was detected. In the absence of added PLP, somewhat less amount aldehyde was detected, presumably due to the presence of PLP in the cell free extract.

[3] = tested on: Vibrio Fluvialis APT (alanine:acetoin aminotransferase); assay: kinetic resolution of 3-amino-2-butanol isomers with the alanine:acetoin aminotransferase; assay type: biochemical, Vibrio Fluvialis JS17; settings: 10 mM pyruvate, 10 mM 1:1 isomer mixture, 0.28 mg enzyme, pH 9.0, 24 h room temperature
Description: An analytical method for detection of 3-amino-2-butanol was developed based on the o-phthaldialdehyde derivatization method for amino acid determination reported by Roth [Anal. Chem. 43:880 (1971)]. A 200 μL aliquot of 1 mM 3-amino-2-butanol (mixture of isomers) was mixed with 200 μL of a 50 mM solution of borate (pH 9.5), to which was added 10 μL of 5 μL/mL 2-mercaptoethanol in ethanol and 10 μL of 10 mg/mL o-phthaldialdehdye in ethanol. The solution was incubated at room temperature for 10 min, at which time the derivative was extracted into 200 μL hexane. The hexane was separated from the aqueous solution by decanting, and 10 μL were injected onto a Chiracel OD HPLC column (Daicel Chemical Industries; Fort Lee, N.J.). The column was run isocratically with a mobile phase of 90:10 hexane:isopropanol at a rate of 1 mL/min. The derivatized isomers of 3-amino-2-butanol were detected by absorbance at 340 nm with retention times of approximately 15.7 and 16.8 min [(2S,3S) and (2R,3R)], and 18.4 and 21.9 min [(2R,3S) and (2S,3R)]. […] After 24 h at room temperature, an aliquot was removed and analyzed as described above. […] After 3 h, samples were taken from the reaction and analyzed as described above for acetoin and butanediol. […]

[4] = tested on: B12-independent diol dehydratase from Clostridium glycolicum; settings: cited from earlier work
[5] = tested on: Klebsiella pneumoniae glycerol dehydratase; assay: glycerol dehydratase butanediol dehydratase activity; assay type: biochemical; settings: crude cell free extract of KLP23/pSYCO12, 80 mM HEPES pH 8.2, 37° C., 12 μM coenzyme B12, 10 mM substrate
Source text: Glycerol dehydratase (E.C. 4.2.1.30) and diol dehydratase (E.C. 4.2.1.28), while structurally related, are often distinguished in the art based on various differences that include substrate specificity. […] The recombinant E. coli strain KLP23/pSYCO1 2, comprising Klebsiella pneumoniae genes encoding the multiple subunits of glycerol dehydratase (alpha: SEQ ID NO:145 (coding region) and 146 (protein); beta: SEQ ID NO: 147 (coding region) and 148 (protein); and gamma: SEQ ID NO: 149 (coding region) and 150 (protein)) and Klebsiella pneumoniae genes encoding the multiple subunits of glycerol dehydratase reactivase (large subunit, SEQ ID NO: 151 (coding region) and 152 (protein); and small subunit, SEQ ID NO: 153 (coding region) and 154 (protein)), is described in Emptage et al. U.S. Pat. No. 6,514,733 and in WO 2003089621, which are herein incorporated by reference. A crude, cell free extract of KLP23/pSYCO12 was prepared by methods known to one skilled in the art. […] The formation of 2-butanone was monitored by HPLC (Shodex SH-1011 column and SH-G guard column with refractive index detection; 0.01 M H2SO4 as the mobile phase at a flow rate of 0.5 mL/min and a column temperature of 50° C.; 2-butanone retention time=40.2 min). The rate of 2-butanone formation by the glycerol dehydratase preparation was determined to be 0.4 nmol/min/mg of crude protein.

## CC(CN)OP(=O)(O)O (racemic) [Aminopropanol O-phosphate, DL-1-amino-2-propanol O-phosphate]
[1]
  product yield / activity compared among substrates: highest activity
[2]; PLP (+)
  OD670, 10 min: 1.229
  OD670, 30 min: 2.264
[2]; PLP (−)
  OD670, 10 min: 0.855
  OD670, 30 min: 1.454

## (2R,3S)-3-amino-2-butanol O-phosphate and (2S,3R)-3-amino-2-butanol O-phosphate [mixture of (R,S) +(S,R) isomers]
[1]
  conversion of substrate to ketone product: two peaks representing the derivatized 2-butanone isomers were observed
  product yield / activity compared among substrates: higher product yield

## C[C@@H](N)COP(=O)(O)O [(R)-2-amino-1-propanol O-phosphate]
[1]
  conversion of substrate to ketone product: converted to propanone

## C[C@H](N)COP(=O)(O)O [(S)-2-amino-1-propanol O-phosphate]
[1]
  conversion of substrate to ketone product: converted to propanone
  product yield / activity compared among substrates: much higher

## C[C@H](O)[C@@H](C)N [(2S,3R) isomer, (2S,3R)-3-amino-2-butanol]
[3]
  peak retained: > 90%

## C[C@@H](N)[C@@H](C)OP(=O)(O)O (mixture of isomers) [mixture of (R,R)+(S,S), (R,R)-3-amino-2-butanol O-phosphate]
[1]
  conversion of substrate to ketone product: two peaks representing the derivatized 2-butanone isomers were observed

## CC(O)C(C)O (stereo not drawn) [2,3-butanediol]
[4]
  activity relative to the activity towards ethanediol: less than 1%

## CC(O)C(C)O (stereo not drawn) [meso-2,3-butanediol]
[5]
  rate of 2-butanone formation: 0.4 nmol/min/mg of crude protein

## C[C@H](N)[C@@H](C)O [(2R,3S) isomer, (2R,3S)-3-amino-2-butanol]
[3]
  peak depleted: 95%
